From patent publication US6379692B1, “Pharmaceutical composition comprising a suspension for the active ingredient” (Chauvin Pharmaceuticals Limited, priority 1997, dated 2002)

Experiment: particle size by Coulter counter (100 μm tube)
Assay type: physicochemical
Conditions: without the use of a viscosity-enhancing agent
Source text: (iii) bringing the salt solution, the aqueous suspension or dispersion and the acid into admixture whereby there is formed a precipitate of microparticles of the active ingredient wherein 90% of the microparticles are of a diameter less than about 10 μm (number) when measured by a Coulter counter (100 μm tube).
Step (iii) may be undertaken by first bringing the salt solution into admixture with the aqueous suspension or dispersion followed by addition of the acid. However, preferably, the acid is added to the aqueous suspension/dispersion prior to addition thereto of the salt solution. Preferably, more base is then added to the suspension to neutralize the hydrophilic polymer(s). […]
However, in contrast to when pre-micronized active ingredient is used, the process of the present invention whereby such fine particles are produced in situ by precipitation results in a better distribution of particle size, with the D90 at room temperature being of the order of 5-10 μm (number), preferably 7-9 μm (number) or 10-16 μm (volume), whereas for pre-micronized drug the D90 is of the order of 5-10 μm (number) or 21-24 μm (volume). […] The term “D90” as used herein with respect to particle size distribution means that 90% of the particles have a diameter, when measured by a Coulter counter (100 μm tube), of less than the quoted figure. […]

Nc1nc2c(ncn2COCCO)c(=O)[nH]1 [aciclovir, 2-amino-1,9-dihydro-9-[(2-hydroxyethoxy)methyl]6H-purin-6-one]
length of needle-shaped crystals precipitated: greater than 30 μm
